Values after ≈ are worked out from the molar mass of the structure shown.

The target in data set [1] is F508del-CFTR in CFBE41o– cells (Homo sapiens, UniProt Q99942). Put plainly: HS-YFP microfluorimetric assay of F508del-CFTR rescue (corrector activity). It is filed as cell-based. The note with it: CFBE41o– cells co-expressing F508del-CFTR and HS-YFP, 24 h treatment, Figure 5. As to the method: As a primary screen, the new thiadiazole derivatives 1–46 (Table 1) were tested for their ability to rescue the F508del-CFTR trafficking defect in CFBE41o^– cells, stably co-expressing F508del-CFTR and the HS-YFP (Figure 5). This cell line has been extensively used by our group, in combination with the microfluorimetric assay based on the HS-YFP, to identify and characterize many CFTR correctors.[39],[47] This assay relies on the hypothesis that RNF5 inhibition results in increased mutant CFTR processing and activity. Therefore, it can easily identify putative RNF5 inhibitors, but not other types of RNF5-binding compounds that could have no effect or have a negative effect on CFTR function, such as RNF5 activators (see analog-1). Thus, we opted for this assay as our primary aim was the identification of RNF5 inhibitors as a possible therapeutic strategy in CF. Twenty-four hours after seeding on 96-well plates, CFBE41o^– cells stably expressing F508del-CFTR and the HS-YFP were treated with test compounds at the desired concentration, one compound per well. Cells treated with vehicle alone (DMSO) and with corrector VX-809 (1 μM), respectively, served as negative and positive controls. At the time of the assay, cells were washed with PBS containing (in […]) 137 NaCl, 2.7 KCl, 8.1 Na2HPO4, 1.5 KH2PO4, 1 CaCl2, and 0.5 MgCl2. Cells were then incubated for 25 min with […] of PBS plus forskolin (20 μM) and VX-770 (1 μM) to maximally stimulate F508del-CFTR. Cells were then transferred to a microplate reader (FluoStar Galaxy; BMG Labtech, Offenburg, Germany) for CFTR activity determination. The plate reader was equipped with high-quality excitation (HQ500/20X: 500 ± 10 nm) and emission (HQ535/30M: 535 ± 15 nm) filters for YFP (Chroma Technology). Each assay comprised a continuous 14 s fluorescence reading and 2 s before and 12 s after injection of […] of an iodide-containing solution (PBS with Cl^– replaced by I^–; final I^– concentration […]). Data were normalized to the initial background-subtracted fluorescence. To determine the I^– influx rate, the final 11 s of the data for each well was fitted with an exponential function to extrapolate initial slope (dF/dt). Reproducibility of results was confirmed by performing three independent experiments. CFBE41o^– cells co-expressing F508del-CFTR and the HS-YFP were reverse-transfected with 50 nM (final concentration) siRNAs (Stealth, Life Technologies) in the presence of lipofectamine 2000 as a transfection agent. The following day, the medium was changed, and the cells were incubated at 37 °C for additional 24 h treated with test compounds at the desired concentration, prior to processing the cells for the YFP-based functional assay.

Data set [2] in a line: Solubility and aggregation in PBS buffer by NMR (SPAM filter, 1H 1D and WaterLOGSY). It is filed as physicochemical. The settings on record: PBS pH 7.5, 1 μM ZnCl2, 1 mM DTT, 10% D2O, 1% DMSO-d6; for solubility: PBS buffer, aqueous buffer, kinetic from dmso stock, theoretical concentration 20 μM, read-out: solubility in PBS buffer by NMR, 20 μM; for aggregation in PBS buffer by NMR: WaterLOGSY. The text has this: Under these circumstances, it was decided to explore the solubility of all the synthetized compounds, regardless of their biological activities, to find a suitable candidate for the validation of our working hypothesis, i.e., that the compounds exert their activities by directly binding to RNF5. For that, we first calculated the predicted octanol/water partition coefficient (log Po/w) and the predicted aqueous solubility (log S) of all the analogues by QikProp (Schrödinger Release 2022-1: QikProp, Schrödinger, LLC, New York, NY, 2021, Table S1). […] To shrink down the number of compounds for solubility experiments, just the ones that had −2.0 < log Po/w < 6 and −6.5 < log S <0.5 values were selected. Among them, the PBS solubility was determined for five representative analogues: (i) 12 and 29 bearing different substituents on the benzyl group A; (ii) 34 and 40 showing the replacement of rings B and C with pyridine-4-yl moieties; (iii) 42 in which the N-phenylbenzamidine portion was replaced with a pyridine-2-yl moiety (Table 1).
All the NMR experiments were recorded at 298 K using a 5 mm CryoProbe QCI ^1H/^19F–^13C/^15N–D quadruple resonance, a shielded z-gradient coil, and an automatic sample changer SampleJet NMR system with temperature control. The solubility of the compounds were evaluated by ^1H 1D experiments and aggregation by WaterLOGSY, testing the compounds in buffer PBS pH 7,5, 1 μM ZnCl2, 1 mM DTT, 10% D2O (for the lock signal), and 1% DMSO-d6 at the theoretical concentrations of 20, 50, and 100 μM in the presence of 200 μM 4-trifluoromethyl benzoic acid (internal reference). For all samples, a 1D ^1H NMR experiment was recorded, the water suppression was obtained using the standard NOESY (nuclear Overhauser effect spectroscopy) preset Bruker pulse sequence, with 64k data points, a spectral width (sw) of 30 ppm, 64 scans, acquisition time (aq) of 1.835 s, a relaxation delay (d1) of 4 s, and a mixing time of 10 ms. […] The data were multiplied by an exponential window function with 1 Hz line broadening prior to Fourier transformation. For NMR binding experiments, the compounds were tested at 50 μM in buffer PBS pH 7.5, 1 μM ZnCl2, 1 mM DTT, 10% D2O (for the lock signal), and 1% DMSO-d6 in the absence and in the presence of 3 μM RNF5. WaterLOGSY experiments were recorded with the same parameters used in solubility assays, but with a higher number of scans (512); STD experiments were recorded with 128 scans, with two on (0.7 and 1 ppm) and one off (−50 ppm) resonance spectra, a Gaussian-shaped train pulse of 50 ms each was employed, with a total saturation time of the protein envelope of 5, 3, 2, 1.5, 1, or 0.5 s. A T1ρ filter of 2 ms was employed in STD experiments to eliminate the background signals from the protein. The STD spectrum was obtained by subtraction of the on-resonance spectrum from the off-resonance spectrum. Subtraction was performed by phase cycling to minimize artifacts arising from magnet and temperature instabilities.

Data set [3] deals with ATG4B-mediated basal autophagy in F508del-CFTR-expressing CFBE41o– cells. Put plainly: Labeling of autophagic vacuoles with monodansylcadaverine (MDC). Type of data set: cell-based, human. The settings on record: test compounds 5 μM 24 h; torin-1 20 nM and SAR-405 2 μM in the last 3 h. The text has this:
To further support our hypothesis that CFTR rescue following treatment with test compounds was indeed due to RNF5 inhibition, we considered additional biological processes known to be regulated by RNF5 ligase activity. To this aim, we focused our attention on ATG4B, a known regulator of basal autophagy, whose degradation is mediated by RNF5 activity.[54]In vivo ubiquitination experiments previously confirmed that inh-2 inhibits ATG4B degradation, thus increasing the basal level of autophagy.[40] […] We thus evaluated the effect of inh-2 analogues on induction of the autophagy pathway. To this aim, we monitored the formation of autophagic vacuoles in F508del-CFTR-expressing CFBE41o^– cells (Figure 8) by using the autolysosome marker monodansylcadaverine (MDC). MDC accumulates inside autophagosomes. After fusion of autophagosomes with lysosomes, MDC fluorescence increases due to the acidic environment.[55] Therefore, F508del-CFTR-expressing CFBE41o^– cells were treated for 24 h with test compounds (5 μM), VX-809 (1 μM), or DMSO alone (vehicle). In the last 3 h of incubation, we added torin-1 (20 nM), a known autophagy inducer, and SAR-405 (2 μM), a potent inhibitor of the autophagic pathway. The cells were then loaded with MDC and evaluated by high-content confocal imaging to detect signal spots (corresponding to autophagic vacuoles) in each cell.
CFBE41o^– cells stably expressing F508del-CFTR and the HS-YFP were plated (50,000 cells/well) on good-quality clear-bottom 96-well black microplates suitable for high-content imaging. After 24 h, cells were treated with test compounds or DMSO (as the negative control). […] After 24 h, cells were incubated with 50 μM MDC (Sigma-Aldrich) in PBS at 37 °C for 10 min.[62] After incubation, cells were washed three times with PBS and immediately analyzed. High-content imaging and data analysis were performed using the Opera Phenix (PerkinElmer) high-content screening system. Wells were imaged in confocal mode using a 40× water-immersion objective. The MDC signal was laser-excited at 405 nm, and the emission wavelengths were collected between 435 and 550 nm. Data analysis of MDC spot number was performed using the Harmony software (ver 4.5) of the Opera Phenix high-content system. Data are expressed as means ± SEM, n = 3 independent experiments. Statistical significance was tested by parametric ANOVA followed by the Dunnet multiple comparisons test (all groups against the control group).

Sequence of F508del-CFTR in CFBE41o– cells (Q99942 2-180): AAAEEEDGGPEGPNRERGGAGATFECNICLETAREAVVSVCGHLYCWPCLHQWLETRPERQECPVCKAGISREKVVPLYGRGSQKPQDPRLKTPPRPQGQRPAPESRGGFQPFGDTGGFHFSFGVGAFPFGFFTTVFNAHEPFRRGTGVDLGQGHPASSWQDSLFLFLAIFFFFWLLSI
Sequence of F508del-CFTR in CFBE41o– cells (P13569 with tags, fused parts or gaps DEL508-508 partner): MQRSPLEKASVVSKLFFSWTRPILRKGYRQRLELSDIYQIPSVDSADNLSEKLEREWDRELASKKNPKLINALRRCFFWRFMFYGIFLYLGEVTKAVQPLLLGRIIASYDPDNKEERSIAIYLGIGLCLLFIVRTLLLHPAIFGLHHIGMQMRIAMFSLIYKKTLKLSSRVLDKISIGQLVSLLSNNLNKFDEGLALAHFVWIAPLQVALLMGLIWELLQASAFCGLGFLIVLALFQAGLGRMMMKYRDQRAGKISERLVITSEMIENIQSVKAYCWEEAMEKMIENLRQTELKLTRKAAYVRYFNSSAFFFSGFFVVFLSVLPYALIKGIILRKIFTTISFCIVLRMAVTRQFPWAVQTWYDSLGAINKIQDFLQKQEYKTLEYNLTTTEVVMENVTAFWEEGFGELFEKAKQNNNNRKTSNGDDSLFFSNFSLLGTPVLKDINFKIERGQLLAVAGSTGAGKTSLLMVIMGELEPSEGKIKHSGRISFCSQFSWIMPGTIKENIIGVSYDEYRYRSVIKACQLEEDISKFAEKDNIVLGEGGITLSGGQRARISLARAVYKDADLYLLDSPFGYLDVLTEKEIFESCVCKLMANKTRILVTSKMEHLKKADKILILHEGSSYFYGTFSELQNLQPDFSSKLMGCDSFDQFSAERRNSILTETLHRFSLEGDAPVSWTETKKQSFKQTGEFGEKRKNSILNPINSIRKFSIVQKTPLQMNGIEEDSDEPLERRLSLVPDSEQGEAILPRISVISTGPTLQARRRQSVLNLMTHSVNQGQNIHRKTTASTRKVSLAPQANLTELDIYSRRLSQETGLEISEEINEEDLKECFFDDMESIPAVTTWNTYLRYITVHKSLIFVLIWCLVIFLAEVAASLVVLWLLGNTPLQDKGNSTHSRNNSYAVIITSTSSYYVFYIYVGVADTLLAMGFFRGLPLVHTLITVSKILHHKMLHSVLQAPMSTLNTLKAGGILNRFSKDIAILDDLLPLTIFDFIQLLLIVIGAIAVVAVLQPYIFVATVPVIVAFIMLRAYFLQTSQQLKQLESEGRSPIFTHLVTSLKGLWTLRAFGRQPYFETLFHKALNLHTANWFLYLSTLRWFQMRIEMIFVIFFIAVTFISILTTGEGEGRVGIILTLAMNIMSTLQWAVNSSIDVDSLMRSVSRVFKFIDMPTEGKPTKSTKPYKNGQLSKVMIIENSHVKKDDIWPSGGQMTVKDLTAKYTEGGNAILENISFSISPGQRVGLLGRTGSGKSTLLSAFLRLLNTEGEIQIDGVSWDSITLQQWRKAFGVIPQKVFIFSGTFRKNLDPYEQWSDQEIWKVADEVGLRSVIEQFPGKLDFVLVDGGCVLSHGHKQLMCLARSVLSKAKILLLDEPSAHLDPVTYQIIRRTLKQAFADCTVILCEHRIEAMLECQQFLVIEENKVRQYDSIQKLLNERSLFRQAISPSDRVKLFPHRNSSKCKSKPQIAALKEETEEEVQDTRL

One may read the solubility as the dissolved amount per volume that the medium holds. For `Cc1ns/c(=N\C(=N\c2ccccc2)c2ccccc2)n1Cc1ccccc1N` [Compound 29, (E)-N-((Z)-4-(2-Aminobenzyl)-3-methyl-1,2,4-thiadiazol-5(4H)-ylidene)-N′-phenylbenzimidamide], the “F508del-CFTR corrector activity compared with inh-2 (CFTR activity, primary screen)” value in data set [1] is “comparable activity to the unsubstituted original hit inh-2”. In data set [2], the solubility is less than 5 µM and the “aggregation in PBS buffer by NMR” value was “no”. The compound also returned a solubility at 50 µM in data set [2] (theoretical concentration 50 μM) of less than 5 µM. Also, in data set [2] (theoretical concentration 100 μM), the solubility at 100 µM was less than 5 µM.

As for `Cc1ns/c(=N\C(=N\c2ccccc2)c2ccccc2)n1Cc1ccc(Br)cc1` [Compound 11, (E)-N-((Z)-4-(4-Bromobenzyl)-3-methyl-1,2,4-thiadiazol-5(4H)-ylidene)-N′-phenylbenzimidamide], the “F508del-CFTR corrector activity compared with inh-2 (CFTR activity, primary screen)” value in data set [1] was “maintained the activity unaltered”. In addition, the “number of autophagic vacuoles (MDC signal spots)” value (“number of autophagic vacuoles” for short) in data set [3] is reported as “significantly increased”.

On to `Cc1ns/c(=N\C(=N\c2ccccc2)c2ccncc2)n1Cc1ccccc1` [Compound 34, (E)-N-((Z)-4-Benzyl-3-methyl-1,2,4-thiadiazol-5(4H)-ylidene)-N′-phenylisonicotinimidamide], for which the “F508del-CFTR corrector activity compared with inh-2 (CFTR activity, primary screen)” value in data set [1] is recorded as “maintaining the activity equal to inh-2”. For the same compound, in data set [2], the solubility came out at 10 µM (≈ 3.85 µg/mL) and the “aggregation in PBS buffer by NMR” value is “no”. In data set [3], the “number of autophagic vacuoles” value is listed as “significantly decreased”.

In the case of `Cc1ns/c(=N\C(=N\c2ccccc2)c2ccccc2)n1Cc1ccc(F)cc1` [Compound 9, (E)-N-((Z)-4-(4-Fluorobenzyl)-3-methyl-1,2,4-thiadiazol-5(4H)-ylidene)-N′-phenylbenzimidamide], the “F508del-CFTR corrector activity compared with inh-2 (CFTR activity, primary screen)” value in data set [1] was “maintained the activity unaltered”. The “number of autophagic vacuoles” value in data set [3] is “significantly decreased”.

`CCC(=O)N1CCN(c2ccc(-n3c(=O)ccc4cnc5ccc(-c6cnc7ccccc7c6)cc5c43)cc2C(F)(F)F)CC1` [torin-1, reference compound]: in data set [3], the “number of autophagic vacuoles” value is recorded as “significantly increased”.

For the compound `C[C@@H]1COCCN1c1cc(=O)n2c(n1)N(Cc1cncc(Cl)c1)[C@H](C(F)(F)F)CC2` [SAR-405, reference compound], the “number of autophagic vacuoles” value in data set [3] was “significantly decreased”.

In the case of `CNc1cccc(Cn2c(C)ns/c2=N\C(=N\c2ccccc2)c2ccccc2)c1` [Compound 21, (E)-N-((Z)-3-Methyl-4-(3-(methylamino)benzyl)-1,2,4-thiadiazol-5(4H)-ylidene)-N′-phenylbenzimidamide], the “F508del-CFTR corrector activity compared with inh-2 (CFTR activity, primary screen)” value in data set [1] is recorded as “did not affect the activity”. The “number of autophagic vacuoles” value in data set [3] is “significantly increased”.

Turning to `Cc1ns/c(=N\C(=N\c2ccccc2)c2ccccc2)n1Cc1ccccc1Cl` [Compound 28, (E)-N-((Z)-4-(2-Chlorobenzyl)-3-methyl-1,2,4-thiadiazol-5(4H)-ylidene)-N′-phenylbenzimidamide], the “F508del-CFTR corrector activity compared with inh-2 (CFTR activity, primary screen)” value in data set [1] is given as “comparable activity to the unsubstituted original hit inh-2”.

Regarding `Cc1ns/c(=N\C(=N\c2ccccc2)c2ccccc2)n1CCc1ccccc1` [Compound 4, (E)-N-((Z)-3-Methyl-4-phenethyl-1,2,4-thiadiazol-5(4H)-ylidene)-N′-phenylbenzimidamide], the “F508del-CFTR corrector activity compared with inh-2 (CFTR activity, primary screen)” value in data set [1] is on record as “devoid of significant F508del-CFTR corrector activity”.

As for `Cc1ns/c(=N\C(=N\c2ccccc2)c2ccccc2)n1Cc1ccccc1C(F)(F)F` [Compound 26, (E)-N-((Z)-3-Methyl-4-(2-(trifluoromethyl)benzyl)-1,2,4-thiadiazol-5(4H)-ylidene)-N′-phenylbenzimidamide], in data set [1], the “F508del-CFTR corrector activity compared with inh-2 (CFTR activity, primary screen)” value is recorded as “detrimental effect”.

These data come from PMC10388311, “Innovative Strategy toward Mutant CFTR Rescue in Cystic Fibrosis: Design and Synthesis of Thiadiazole Inhibitors of the E3 Ligase RNF5” (Journal of Medicinal Chemistry, 2023).
